Assays:
[1] = system: Human T cell lines from four cat allergic patients; assay: IL-2 and IL-4 production by TRFP-primed T cell lines of four cat allergic patients; type: cell-based; details: panel of four patients 688, 730, 738, 807
Description: Human T cell lines from four cat allergic patients (patients 688, 730, 738, and 807) were isolated. Heparinized peripheral blood specimens were obtained from cat allergic patients and the mononuclear cell fraction was purified by Ficoll-Hypaque centrifugation. An aliquot of these cells (2×10^6) was stimulated in vitro with purified native TRFP (10 μg/ml) and grown in the presence of recombinant IL-2 and IL-4. The T cell line was then rested in culture until ready for secondary proliferation assay. Two×10^4 cells were cultured in 200 μl medium containing various concentrations of test antigens with 5×10^4 γ-irradiated autologous Epstein-Barr Virus transformed cells as antigen presenting cells. After 3 days of culture, each microwell was pulsed overnight with 1 μCurie tritiated thymidine, and the amount of radioactivity incorporated was measured by liquid scintillation counting. The stimulation index (S.I.) for each antigen was then calculated. […] The IL-2 in the medium was measured by proliferation of the IL-2 dependent T cell line, […]. […] IL-4 was measured by an ELISA purchased from R&D Systems, Minneapolis, Minn. […] The stimulation indices for IL-2 and IL-4 production were calculated by dividing the amount of IL-2 or IL-4 contained in the medium from stimulated T cells divided by the amount of IL-2 or IL04 released by non-stimulated T cells.

human IgE = assay: Western blot and ELISA of human IgE binding to affinity purified TRFP
Description: A protein preparation was extracted from the contents of vacuum cleaner bags by a method based on that of M. D. Chapman and co-workers. Chapman, M. D. et al., J. Immunol., 140(3): 812-818 (1988). Monoclonal antibody reactive with Fel d I, produced by Chapman and co-workers, was used to identify a protein in the preparation. de Groot, H. et al., J. Allergy Clin. Immunol., 82:778-786 (1988). Selected monoclonal antibodies (designated 1G9 and 6F9) that recognize Fel d I native protein were used to affinity purify a protein, which is referred to as human T cell reactive feline protein (TRFP) (also referred to as VCB or vacuum cleaner bag protein) from a house dust sample. This was carried out, using known techniques, by producing the desired monoclonal antibody, isolating it in large quantities from ascites and immobilizing it on Sepharose 4B (Pharmacia). The protein preparation was extracted from vacuum cleaner bags of house dust obtained from several homes with cats. Aqueous vacuum cleaner bag extract was first subjected to gel filtration and decolorization and, subsequently, affinity chromatography purification. Aqueous vacuum cleaner bag extract was passed over the monoclonal antibody-containing column and a protein species was eluted. […] The affinity purified TRFP was subjected to a number of protein chemical procedures to derive primary amino sequence data. […]

[2] = system: Patient 155 TRFP secondary primed T cells; assay: In vitro induction of T cell non-responsiveness, then proliferation on antigenic challenge; type: cell-based, human; details: label = tolerance treatment
Description: Patient 155 TRFP secondary primed T cells (2.5×10^6) were rested and cultured with (2.5×10^6) irradiated autologous Epstein Barr Virus transformed B cells (EBV) in 1 ml of complete RPMI with 10% AB serum in 12×75 mm polypropylene snap cap tubes and increasing amounts of antigen over 5 consecutive days. The T cell cultures were exposed to 5 μg/ml purified native TRFP on day 0 and 5 μg/ml, 10 μg/ml, 10 μg/ml and 20 μg/ml thereafter. The peptide treated cultures were exposed to 1 μg/ml peptide on day 0 and 1 μg/ml, 1 μg/ml, 2 μg/ml and 5 μg/ml thereafter. In addition, 0.5 ml of fresh media was replaced on day 2. The cells were then washed and set up for a proliferation assay with 2×10^4 T cells and 2×10^4 irradiated (2500 Rad) autologous EBV and various doses of antigen. T cell proliferation was measured as incorporation of tritiated thymidine at day 9.

mice = assay: Specificity of peptide-induced unresponsiveness (peptide Y vs MI-05); type: in vivo, mouse; details: subcutaneous injection in saline
[3] = system: BDF1 mice preimmunized with TRFP; assay: Peptide Y specific antibody ELISA of sera from TRFP-preimmunized, peptide Y tolerized mice; type: in vivo, mouse
Description: The serum was separated as previously described. […] Each incubation step in this protocol lasts 1 hour at 37° C. The wells were incubated with gelatin in PBS for blocking excess binding to the plate. Sera were diluted in PBS in a range from 1/300 to 1/8100 and incubated in triplicate on the plates. After rinsing, the bound mouse antibody was detected by incubation with biotinylated goat anti-mouse IgG (Southern Biotechnology Associates). Streptavidin conjugated to horse radish peroxidase (Southern Biotechnology Associates) was added to detect antigen bound biotinylated antibody-complexes. […] The data from the other sera dilutions were consistent with the data from the 1/900 sera dilution.
The sera were assayed for the presence of peptide Y specific IgM, IgE, and IgG isotypes. The ELISA used to detect antigen specific binding of IgG1, IgG2a, IgG2b, IgG3 and IgM isotypes were similar to the IgG assay described above with the only difference being the biotinylated anti-immunoglobulin used to detect the bound isotype. These assays employed biotinylated goat anti-IgG1 (#1070-08), Southern Biotechnology Associates), anti-IgG2a (#1080-08, SBA), anti-IgG2b (1090-08, SBA) […] (1100-08, SBA), and anti-IgM (1020-08, SBA). Antigens bound IgE was detected similarly, but using biotinylated EM95, a rat monoclonal antibody specific for mouse IgE. (Baniyash M, Eshhar Z, Eur J. Immunol. 14:799, 1984). Biotinylated goat anti-rat Ig was used as an added signal amplification step in the IgE ELISA. […] IgG1 was the major isotype seen in the animals which were injected with saline only, with a titer of 1/2700 for all three animals. […] The titers for IgM and IgG2b were similarly effected.

| Substance | IL-4 versus IL-2 production [1] | T cell proliferation following antigenic challenge ([2]; challenge with Fel 8-3) | T cell proliferation following antigenic challenge ([2]; challenge with Ragweed Peptide) | T cell proliferation following antigenic challenge ([2]; challenge with TRFP) | T cell proliferation following antigenic challenge ([2]; no antigenic challenge (—)) | further results |
| --- | --- | --- | --- | --- | --- | --- |
| NARILKNCVDAKMTEEDKE [Fel 4, TRFP chain 1 amino acids 37-55] | induces more IL-4 than IL-2 |  |  |  |  |  |
| TRFP: human T cell reactive feline protein affinity purified from house dust; two covalently linked chains | favors IL-4 as opposed to IL-2 | 36,030 cmp | 6,670 cmp | 33,160 cmp | 2,190 cmp | human IgE binding (human IgE): bind human IgE |
| peptide X: amino acid residues 7-30 from chain 1 of TRFP (SEQ. ID. NO: 17); Table 2 lists Fel 8-3 as 7-33 (KRDVDLFLTGTPDEYVEQVAQYKALPV) |  | 3,850 cmp | 5,130 cmp | 12,320 cmp | 1,270 cmp |  |
| peptide Y: amino acid residues 29-55 from chain 1 of TRFP (SEQ. ID. NO: 18) (KALPVVLENARILKNCVDAKMTEEDKE) |  |  |  |  |  | responses to MI-05 (mice): did not affect responses to MI-05; responsiveness to peptide Y (mice): decreased responsiveness to peptide Y; IgG antibody specific for peptide Y ([3]; 10 days after peptide Y/CFA challenge, sera 1/900): little antibody specific for peptide Y; peptide Y specific IgG2a, IgG3, or IgE ([3]; mouse, in vivo): No binding above background; peptide Y specific IgG2b ([3]; peptide Y tolerized animals): no IgG2b binding above background; peptide Y specific serum IgM titer ([3]; peptide Y tolerized animals): 1/300; peptide Y specific IgG1 titer ([3]; peptide Y tolerized animals (two animals / one animal)): 1/300 and no binding above background |
